Source: patent publication US5175338A, “Isocarbacyclin derivatives and their pharmaceutically acceptable salts thereof” (Teijin Limited, priority 1986, dated 1992)
≈ marks a conversion by molar mass, not a printed value.

How the values were obtained:
Platelet aggregation = Platelet aggregation inhibiting activity in vitro (ADP-induced, rabbit platelet-rich plasma); format: cell-based, rabbits (Japanese native white male); conditions: Oryctolagus cuniculus, rabbit PRP, ADP 10 μM, 37° C., minimum concentration at which inhibition exceeds 50%, read-out: Platelet aggregation inhibitory activity (IC50)
Protocol: The platelet aggregation inhibiting activity in vitro of each of the text compounds was assayed by using rabbits. Japanese native white male rabbits having a body weight of 2.5 to 3.5 kg were used. Blood was taken from the ear vein of the animals maintaining the 3.8% trisodium citrate/blood ratio at 1:9. The blood was centrifuged at 1,000 rpm for 10 minutes, and the upper layer was separated as PRP (platelet-rich plasma). The lower layer was further centrifuged at 2,800 rpm for 10 minutes. It separated into two layers. The upper layer was separated as PPP (platelet-poor plasma). The number of platelets was adjusted to 6×10^5 /microliter by dilution with PPP. Each of the test compounds was added in an amount of 25 microliters to 250 microliters of PRP after adjustment, and the mixture was subjected to preincubation at 37° C. for 2 minutes. Then ADP was added so that its final concentration was 10 μM, and variations in transmittance were recorded by using an agrigometer. The test compound was used after it was dissolved in ethanol to a concentration of 10 mg/ml and then serially diluted with phosphate buffer (pH 7.4). The percent inhibition of aggregation was calculated in accordance with the following equation. [formula] where
To is the transmittance of the system to which the test compound was not added, and
T is the transmittance of the system to which the test compound was added.
The minimum concentration of the compound at which the percent inhibition exceeds 50% is shown as IC50.

[1] = system: liver cell necrosis induced by carbon tetrachloride; assay: Effect (in vivo) on liver cell necrosis induced by carbon tetrachloride; inhibition of plasma GPT activity increase; design: species or system SD-strain male rats; conditions: five administrations, 24 hours after CCl4 s.c., rat
Protocol: Effect (in vivo) on liver cell necrosis induced by carbon tetrachloride
Carbon tetrachloride and each of the test compounds were administered to SD-strain male rats (6 weeks old, body weight 170 to 200 g) by the following procedure. Blood was taken from the animals, and glutamic acid-pyruvic acid transferase (GPT) activity as an index of liver injury was measured by the ultraviolet absorbance measuring method (rate-optimum standard method), and the effect of the test compound was evaluated.
The rats were used in groups each consisting of 8 to 36 rats. The test compound was used as an aqueous 0.5% Tween 80-2.5% ethanol solution. […] The test compound was administered five times in total, i.e. 30 minutes before administration of carbon tetrachloride and 1, 2, 8 and 18 hours after administration of carbon tetrachloride. The carbon tetrachloride was subcutaneously administered as a 50% olive oil solution at a rate of […] of body weight (6670 mg/kg body weight as carbon tetrachloride). Before administration of carbon tetrachloride, the animals had been caused to abstain from food for about 18 hours.
Twenty-four hours after the administration of carbon tetrachloride, the rats were anesthetized with ether. Blood was drawn from the abdominal artery of the animals, and left to stand at room temperature for 1 hour and then centrifuged at 3,000 rpm for 15 minutes. The supernatant was used as a serum sample, and the GPT activity was measured.
The percent inhibition of the test compound on the increase of the plasma GPT activity increase by CCl4 was calculated in accordance with the following equation. [formula]

Row | Compound | IC50 (Platelet aggregation) | Percent inhibition of the plasma GPT activity ([1]; 0.3 mg/kg p.o.) | Percent inhibition of the plasma GPT activity ([1]; 1.0 mg/kg p.o.) | Percent inhibition of the plasma GPT activity ([1]; 3.0 mg/kg p.o.)
1 | CCCCC(C)(O)C/C=C/[C@@H]1[C@H]2CC(CCCCC(=O)O)=C[C@H]2C[C@H]1O (stereo partly shown) [15-Deoxy-16-hydroxy-16-methylisocarbacyclin] | 0.37 µg/mL (≈ 1.02 µM) | – | – | –
2 | CCCC[C@H](C)C[C@H](O)/C=C/[C@@H]1[C@H]2CC(CCCCC(=O)N[C@@H](CC(C)C)C(=O)O)=C[C@H]2C[C@H]1O [17(S),20-Dimethylisocarbacyclin L-leucine amide] | > 1000 µg/mL | 33% | – | –
3 | CCCC[C@H](C)C[C@H](O)/C=C/[C@@H]1[C@H]2CC(CCCCC(=O)OCC(=O)O)=C[C@H]2C[C@H]1O [17(S),20-dimethylisocarbacyclin carboxymethyl ester] | 407 µg/mL (≈ 932 µM) | – | 44% | 39%
4 | CCCCC[C@H](O)/C=C/[C@@H]1[C@H]2C/C(=C/CCCC(=O)O)O[C@H]2C[C@H]1O [Prostaglandin I2, reference compound] | 0.004 µg/mL (≈ 0.0113 µM) | – | – | –
